Measurements from PMC12077799, “Fragment-based drug discovery for transthyretin kinetic stabilisers using a novel capillary zone electrophoresis method” (PLOS One, 2025).

Target: T1, Human transthyretin (TTR) thyroxine binding sites (Homo sapiens, UniProt P02766)
T1 construct: purchased SCIPAC (Sittingbourne, Kent, UK) P171-1
Assay: TTR CZE Free Probe Peak Height Restoration (FPPHR) assay, 8-ANS displacement
Settings: compound 10 µM in Running Buffer; 10% minimum for a binder
Protocol: CZE assays development and fragment screening were performed on a Beckman P/ACE MDQ capillary electrophoresis system (Beckman Coulter Inc., Brea, CA) operated by 32 Karat™ software. All capillaries (Polymicro Technologies, Phoenix, AZ) used were internally coated with polyvinyl alcohol and of around 30 cm in length, 75 microns in internal diameter. Capillary temperature was maintained at 20 °C by recirculating fluorinated fluid coolant during electrophoresis. Sample trays and buffer trays temperature were maintained at 4°C and ambient respectively. For every electrophoretic run, the capillary was pressure rinsed and prefilled with electrophoresis buffer also known as background electrolyte (termed as Running Buffer hereafter) before injection. After each electrophoretic run, the capillary was rinsed with Running Buffer and H2O by pressure (20 psi for 1 minute). Three Running Buffers (RB), A: 20 mM Tris pH 7.5, 1 mM KCl, 1.62 mM NaCl; B: 20 mM HEPES pH 7.0, 2 mM CaCl2 and C: 20 mM HEPES pH 7.0, 2 mM CaCl2, 1% DMSO were used. All CE traces were analysed by 32Karat™ Software with a built-in automatic peak integration algorithm.
Control 1 Inject Buffer (IB) containing 30 μM 8-ANS was prepared by mixing 1 μL of 3 mM 8-ANS DMSO stock with 99 μL of Running Buffer B in a 0.2 mL PCR tube. Control 2 Inject Buffer was prepared by mixing 1μL of 3 mM 8-ANS DMSO stock with 20 μL of 100 μM tetrameric TTR stock in Running Buffer B and 79 μL of Running Buffer B. The final concentrations (f/c) were 8-ANS 30 μM, TTR 20 μM and 1% DMSO v/v.
The maximum Free Probe Peak Height (Control 1 Peak Height) was determined by Outlet Injection (see Fig 1) of Control 1 with an injection pressure of 0.5 psi for 5 seconds (equivalent to ≈ 20–30 nL). An identical injection of Control 2 provides the minimum Free Probe Peak Height (Control 2 Peak Height) enabling calculation of % of bound and unbound, i.e., free 8-ANS. To determine the 8-ANS peak height in Control 1 and Control 2, the capillary was prefilled with Buffer C and electrophoresis carried out at 10 kV (Normal Polarity, Fig 1) with UV monitoring at 230 nm. For displacement analysis, ligand DMSO stock was diluted in Buffer B and used to fill the capillary as the Running Buffer. Electrophoresis commenced after injection of Control 2, thus the injected 8-ANS-TTR complex migrates inside a capillary filled with the test ligand. The observed 8-ANS peak height is defined as Sample Peak Height and the displaced 8-ANS can be calculated as:
\% of Free Probe Peak Height Restoration= Sample Peak Height−Control 2 Peak Height/Control 1 Peak Height−Control 2 Peak Height

Row | SMILES | FPPHR % tested at 10 µM
1 | c1ccc2c(-c3nnc4cnccn34)ccnc2c1 [Compound 86471824] | 10.85% tested at 10 µM
2 | Clc1ccc2c(-c3cc[nH]n3)ccnc2c1 [Compound 63633004] | 22.71% tested at 10 µM

Same assay, conditions: compound 50 μM in Running Buffer; 10% minimum for a binder

Row | SMILES | FPPHR % at 50 μM
3 | c1cc2[nH]ccc2cn1 [Compound 218458] | 5.03%
4 | Nc1[nH]ncc1-c1ccc(Cl)cc1 [Compound 242212] | 25.65%
5 | Clc1cc2cc[nH]c2cn1 [Compound 217869] | 12.83%
6 | CN(C)Cc1c[nH]c2ncccc12 [SFL001519] | 1.88%
7 | COC(=O)c1c[nH]c2ccccc12 [Compound A00010562] | 16.40%
8 | Cc1nn(C)c(N)c1-c1ccccc1 [SFL001562] | 7.42%
9 | Cc1[nH]ncc1-c1ccccc1 [Compound 12T-0222] | 25.63%
10 | c1ccc(-c2cn[nH]c2)cc1 [Compound Z1013760930] | 14.93%
11 | Clc1n[nH]c2ccccc12 [Compound A00014954] | 24.84%
12 | c1cnc2[nH]ccc2c1 [Compound 242506] | 7.85%
13 | c1cc2cc[nH]c2cn1 [Compound A00010944] | 3.73%
14 | Nc1[nH]ncc1-c1ccccc1 [OR1969] | 13.28%

Same assay, conditions: compound 100 μM in Running Buffer; 10% minimum for a binder

Row | SMILES | FPPHR % at 100 μM
15 | c1ccc2[nH]ncc2c1 [SFL000101] | 12.12%
16 | c1ccc2nc(-c3cn[nH]c3)ccc2c1 [SFL001536] | 18.42%
17 | c1ccc2[nH]ccc2c1 [SFL001004] | 17.18%
18 | c1ncc2[nH]cnc2n1 [SFL001639] | 5.29%
19 | c1cncc(-c2nc3ccccc3[nH]2)c1 [SFL001465] | 6.22%
20 | N#Cc1ncnc2nc[nH]c12 [SFL001640] | 4.78%

Same assay, conditions: in words; concentrations (e.g. Tafamidis 10 µM, Diphenylamine 250 μM, Verapamil 300 µM, Acetazolamide 500 µM)

Row | SMILES | change of free 8-ANS peak height with compound in the Running Buffer
21 | N[C@@H](Cc1cc(I)c(Oc2cc(I)c(O)c(I)c2)c(I)c1)C(=O)O [Thyroxine T4, reference compound] | significant free 8-ANS peak height increase
22 | Nc1cc(Cl)c(O)c(Cl)c1 [4-Amino-2,6-Dichlorophenol, reference compound] | significant free 8-ANS peak height increase
23 | O=C(O)c1ccc2nc(-c3cc(Cl)cc(Cl)c3)oc2c1 [Tafamidis, reference compound] | significant free 8-ANS peak height increase
24 | Nc1ccccc1S(N)(=O)=O [2-Aminobenzenesulphonamide, reference compound] | changed minimally
25 | CC(=O)Nc1nnc(S(N)(=O)=O)s1 [Acetazolamide, reference compound] | changed minimally
26 | c1ccc(Nc2ccccc2)cc1 [Diphenylamine, reference compound] | significant free 8-ANS peak height increase
27 | COc1ccc(CCN(C)CCCC(C#N)(c2ccc(OC)c(OC)c2)C(C)C)cc1OC (stereo not drawn) [Verapamil, reference compound] | changed minimally
